Source: US20060204460A1, “Lip gloss composition” (KOKYU ALCOHOL KOGYO CO., LTD., priority 2005, published 2006)

Test: Viscosity of liquid oil (E) on a Brookfield viscometer
Assay type: physicochemical
Details: at 25 degrees C., No. 2 spindle, 12 rpm
Protocol: The liquid oil having a viscosity of from 5 to 400 mPa·s at 25 degrees C., (E), is known and commonly used in cosmetics. The viscosity of the liquid oil at 25 degrees C. is preferably 8 to 350 mPa·s, and more preferably 12 to 300 mPa·s. […] The viscosity is measured on a Brookfield viscometer using No. 2 spindle at 12 rpm.

Compound | Viscosity [mPa·s]
octyldodecyl stearoyloxystearate | 90
pentaerythrityl tetraisostearate | 290
CCCCC(CC)C(=O)OCC(COC(=O)C(CC)CCCC)OC(=O)C(CC)CCCC (stereo not drawn) [triethyl hexanoin] | 35
CCCCC(CC)C(=O)OCC(C)(C)COC(=O)C(CC)CCCC (stereo not drawn) [neopentylglycol diethylhexanoate] | 13
CC(C)CCCCCCCCCCOC(=O)CCCCCC(C)C [isotridecyl isononanoate] | 12
trimethylolpropane triisostearate | 180
CCCCCCCCCCCCCCCC(=O)OC(C)C [isopropyl palmitate] | 7
CC(C)CCCC(C)CCCC(C)CCCCC(C)CCCC(C)CCCC(C)C (stereo not drawn) [squalane] | 32
CCCCCCCCCC(=O)OCC(C)(C)COC(=O)CCCCCCCCC [neopentylglycol dicaprate] | 19
CC(C)CCCCCCCCCCCCCCCOC(=O)CCCCCCCCCCCCCCC(C)C [isostearyl isostearate] | 40
diisopropyl dilinoleate | 310
trimethylolpropane triethylhexanoate | 52
octyldodecyl neopentanoate | 15
CC(C)CCCCCCOC(=O)CCCCCC(C)C [isononyl isononanoate] | 6
CCCCCCCCCCCCCCCCOC(=O)C(CC)CCCC (stereo not drawn) [cetyl ethylhexanoate] | 13
octyldodecyl neodecanoate | 25

Other lines, results leading:

Viscosity [mPa·s] | Compound
110 | CCCCC(CC)C(=O)OCC(COC(=O)C(CC)CCCC)(COC(=O)C(CC)CCCC)COC(=O)C(CC)CCCC (stereo not drawn) [pentaerythrityl tetraethylhexanoate]
64 | ethylhexyl hydroxystearate
34 | hexyldecyl isostearate
10 | CC(C)CCCCCCCCCCCCCCC(=O)OC(C)C [isopropyl isostearate]
11 | hexyldecyl ethylhexanoate
15 | CC(C)CCCCCCCCCCCCCCCOC(=O)C(C)(C)C [isostearyl neopentanoate]
185 | triisostearine
5 | isononyl ethylhexanoate
